# Biological target: T1, CDK2/Cyclin E complex (Homo sapiens, UniProt P24941)
# T1 construct: purchased Eurofins 14-475
# Experiment: CDK2/Cyclin E fluorescence-based microfluidic mobility shift assay (CDK2 Biochemical Caliper Assay)
# Conditions: read-out: Biochemical CDK2/CyclinE Caliper IC50
# Method in brief: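 Wild-type CDK2/Cyclin E was preincubated with compound and ATP for 30 min at RT before the 5-FAM-QSPKKG peptide was added. Final concentrations were 0.1 nM enzyme, 2000 uM ATP, 1.5 uM peptide and 1% DMSO. After 20 hr at RT and EDTA stop, substrate conversion was read by microfluidic mobility shift over an 11-point, 3-fold dilution series.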
row,Compound,IC50 [nM]
1,Cn1nc(COC(F)(F)F)cc1C(=O)Nc1cc([C@H]2C[C@@H](OC(=O)NC3(C#N)CC3)CO2)[nH]n1 [Example 788],≤ 100
2,COCc1cc2c(Nc3cc([C@H]4C[C@@H](Oc5nn(C)cc5C(C)C)CO4)[nH]n3)nccn2n1 [Example 790],1000 to 100000
3,Cn1nc(CCOC(F)(F)F)cc1C(=O)Nc1cc([C@H]2C[C@@H](OC(=O)NC3(C)CC3)CO2)[nH]n1 [Example 791],≤ 100
4,Cc1cc2c(c(Nc3cc(C4CCCC4)[nH]n3)n1)C(=O)NC2=O [Example 792],1000 to 100000
5,c1cn2ncc(Nc3cc(C4CCCC4)[nH]n3)cc2n1 [Example 793],1000 to 100000
6,c1c(Nc2ncc3c(n2)C2CCC3C2)n[nH]c1C1CCCC1 (stereo not drawn) [Example 794],1000 to 100000
7,Cc1cc(C)n2ccnc(Nc3cc(C4CCCC4)[nH]n3)c12 [Example 795],1000 to 100000
8,CC1(C)NC(=O)c2ccc(Nc3cc(C4CCCC4)[nH]n3)nc21 [Example 796],≤ 100
9,Cc1nc(Nc2cc(C3CCCC3)[nH]n2)cc2nncn12 [Example 797],1000 to 100000
10,N#CCc1c[nH]c2nccc(Nc3cc(C4CCCC4)[nH]n3)c12 [Example 798],1000 to 100000
11,Cc1cncc(Cl)c1Nc1cc(C2CCCC2)[nH]n1 [Example 799],1000 to 100000
12,COC(=O)c1cc(Nc2cc(C3CCCC3)[nH]n2)cnn1 [Example 800],1000 to 100000
13,Clc1cccc2nc(Nc3cc(C4CCCC4)[nH]n3)cnc12 [Example 801],1000 to 100000
14,Cc1cc(Nc2cc(C3CCCC3)[nH]n2)n2nc(C)cc2n1 [Example 802],1000 to 100000
15,COC(=O)c1cnc(C)cc1Nc1cc(C2CCCC2)[nH]n1 [Example 803],1000 to 100000
16,COc1cnc2c(Nc3cc(C4CCCC4)[nH]n3)nccc2c1 [Example 804],1000 to 100000
17,Cc1csc2nc(Nc3cc(C4CCCC4)[nH]n3)ncc12 [Example 805],1000 to 100000
18,Cc1cc(C)nc(Nc2cc(C3CCCC3)[nH]n2)n1 [Example 806],1000 to 100000
19,CCCc1cnnc(Nc2cc(C3CCCC3)[nH]n2)c1 [Example 807],1000 to 100000
20,CCCCOc1ccc(Nc2cc(C3CCCC3)[nH]n2)nc1 [Example 808],1000 to 100000
21,CC1Cc2nc(Nc3cc(C4CCCC4)[nH]n3)ncc2C(C)O1 (stereo not drawn) [Example 809],1000 to 100000

row,Compound,IC50 [nM]
1,COc1cc(Nc2cc(C3CCCC3)[nH]n2)nc2sccc12 [Example 810],1000 to 100000
2,COCCOc1ccnc(Nc2cc(C3CCCC3)[nH]n2)n1 [Example 811],1000 to 100000
3,Cc1cc(Nc2cc(C3CCCC3)[nH]n2)c2c(F)cccc2n1 [Example 812],1000 to 100000
4,Oc1ccc2ccnc(Nc3cc(C4CCCC4)[nH]n3)c2c1 [Example 813],1000 to 100000
5,CC(C)c1cc(Nc2cc(C3CCCC3)[nH]n2)n2ncnc2n1 [Example 817],1000 to 100000
6,Cc1cn2nccc2c(Nc2cc(C3CCCC3)[nH]n2)n1 [Example 822],250 to 1000
7,Cc1[nH]nc2nccc(Nc3cc(C4CCCC4)[nH]n3)c12 [Example 827],1000 to 100000
8,O=C1COc2ncnc(Nc3cc(C4CCCC4)[nH]n3)c2N1 [Example 831],1000 to 100000
9,Cc1cn2nc(Nc3cc(C4CCCC4)[nH]n3)cc(C)c2n1 [Example 832],1000 to 100000
10,c1cc(Nc2cc(C3CCCC3)[nH]n2)n2ccnc2n1 [Example 837],1000 to 100000
11,Cc1nc(Nc2cc(C3CCCC3)[nH]n2)c2sccc2n1 [Example 839],1000 to 100000
12,OCCOc1cncc(Nc2cc(C3CCCC3)[nH]n2)n1 [Example 842],100 to 250
13,O=c1ccc2nc(Nc3cc(C4CCCC4)[nH]n3)ccc2[nH]1 [Example 849],1000 to 100000
14,Clc1ccn2c(Nc3cc(C4CCCC4)[nH]n3)nnc2c1 [Example 850],1000 to 100000
15,Cc1nc(Nc2cc(C3CCCC3)[nH]n2)cc(-c2ccco2)n1 [Example 853],1000 to 100000
16,Cc1cc(C(F)(F)F)c(Nc2cc(C3CCCC3)[nH]n2)nn1 [Example 855],1000 to 100000
17,Cc1cnnc(Nc2cc(C3CCCC3)[nH]n2)c1C(=O)O [Example 856],1000 to 100000
18,CS(=O)(=O)N1CCC(Nc2cc(C3CCCC3)[nH]n2)CC1 [Example 857],1000 to 100000
19,Cc1cc2ccccc2c(Nc2cc(C3CCCC3)[nH]n2)n1 [Example 858],1000 to 100000
20,Cc1cc2ncnc(Nc3cc(C4CCCC4)[nH]n3)c2[nH]1 [Example 859],1000 to 100000
21,Fc1cnc(Nc2cc(C3CCCC3)[nH]n2)c2ccccc12 [Example 860],1000 to 100000

row,Compound,IC50 [nM]
1,c1cc2c(Nc3cc(C4CCCC4)[nH]n3)ncnn2c1 [Example 861],1000 to 100000
2,Cc1cnc(Nc2cc(C3CCCC3)[nH]n2)c(C)n1 [Example 862],1000 to 100000
3,Cc1c(F)c(Nc2cc(C3CCCC3)[nH]n2)nc2ccccc12 [Example 863],1000 to 100000
4,CC(C)c1nc(Nc2cc(C3CCCC3)[nH]n2)c2cc[nH]c2n1 [Example 864],250 to 1000
5,COc1cnc2ncnc(Nc3cc(C4CCCC4)[nH]n3)c2c1 [Example 865],1000 to 100000
6,Cc1c(Nc2cc(C3CCCC3)[nH]n2)nn2cnnc2c1C [Example 866],1000 to 100000
7,c1cc2c(nc1Nc1cc(C3CCCC3)[nH]n1)CCOC2 [Example 867],1000 to 100000
8,COc1cccc2ccc(Nc3cc(C4CCCC4)[nH]n3)nc12 [Example 868],1000 to 100000
9,c1cn2nc3c(c2c(Nc2cc(C4CCCC4)[nH]n2)n1)CCC3 [Example 869],1000 to 100000
10,c1cn2nc(C3CC3)cc2c(Nc2cc(C3CCCC3)[nH]n2)n1 [Example 870],1000 to 100000
11,c1ccc(-c2ncnc(Nc3cc(C4CCCC4)[nH]n3)n2)cc1 [Example 871],1000 to 100000
12,Cc1nc(Nc2cc(C3CCCC3)[nH]n2)c(C#N)c2c1CCC2 [Example 872],1000 to 100000
13,O=c1cc(Nc2cc(C3CCCC3)[nH]n2)c2ncccc2[nH]1 [Example 873],1000 to 100000
14,Cc1cc(C(=O)O)c(Nc2cc(C3CCCC3)[nH]n2)nc1C [Example 874],1000 to 100000
15,CCc1c(C)nc2ncnn2c1Nc1cc(C2CCCC2)[nH]n1 [Example 875],1000 to 100000
16,Oc1cc(Nc2cc(C3CCCC3)[nH]n2)ncn1 [Example 876],1000 to 100000
17,c1cc2nc(Nc3cc(C4CCCC4)[nH]n3)ccn2n1 [Example 877],250 to 1000
18,COc1ccc2cnnc(Nc3cc(C4CCCC4)[nH]n3)c2c1 [Example 878],1000 to 100000
19,Cn1nc(COC(F)(F)F)cc1C(=O)Nc1cc([C@H]2C[C@@H](OC(=O)NC(C)(C)C#N)CO2)[nH]n1 [Example 879],≤ 100
20,COCc1cc(C(=O)Nc2cc([C@H]3C[C@@H](OC(=O)NC4(C)CC4)CO3)[nH]n2)n(C)n1 [Example 880],≤ 100
21,Cn1nc(OCC(F)(F)F)cc1C(=O)Nc1cc([C@H]2C[C@@H](OC(=O)NC34CC(C3)C4)CO2)[nH]n1 [Example 881],≤ 100

row,Compound,IC50 [nM]
1,Cn1nc(OC(F)(F)Cl)cc1C(=O)Nc1cc([C@H]2C[C@@H](OC(=O)NC3(C)CC3)CO2)[nH]n1 [Example 882],≤ 100
2,Cn1nc(C=O)cc1C(=O)Nc1cc([C@H]2C[C@@H](OC(=O)NC3(C)CC3)CO2)[nH]n1 [Example 883],≤ 100
3,Cn1nc(COC(F)(F)F)cc1C(=O)Nc1cc([C@H]2C[C@@H](OC(=O)NC34C5C6C7C5C3C7C64)CO2)[nH]n1 (stereo partly drawn) [Example 884],≤ 100
4,COCC1(NC(=O)O[C@H]2CO[C@@H](c3cc(NC(=O)c4cc(COC(F)(F)F)nn4C)n[nH]3)C2)CC1 [Example 885],≤ 100
5,CC1(NC(=O)O[C@H]2CO[C@@H](c3cc(NC(=O)c4cnn(CCOC(F)(F)F)c4)n[nH]3)C2)CC1 [Example 886],≤ 100
6,Cn1nc(OCC(F)F)cc1C(=O)Nc1cc([C@H]2C[C@@H](OC(=O)NC34CC(C3)C4)CO2)n[nH]1 [Example 887],≤ 100
7,Cn1nc(COC(F)(F)F)cc1C(=O)Nc1cc([C@H]2C[C@@H](OC(=O)NC3(C)COC3)CO2)[nH]n1 [Example 888],≤ 100
8,Cn1nc(COC(F)(F)F)cc1C(=O)Nc1cc([C@@H]2C[C@H](OC(=O)NC3(C)COC3)CO2)[nH]n1 [Example 893],≤ 100
9,COCC1(NC(=O)O[C@@H]2CO[C@H](c3cc(NC(=O)c4cc(COC(F)(F)F)nn4C)n[nH]3)C2)CC1 [Example 894],≤ 100
10,COCc1cc(C(=O)Nc2cc([C@H]3C[C@@H](OC(=O)NC4(C)CC4)CO3)[nH]n2)n(C(F)(F)F)n1 [Example 895],≤ 100
11,COCc1cc(C(=O)Nc2cc([C@H]3C[C@@H](Oc4[nH]ncc4C(C)C)CO3)[nH]n2)n(C)n1 [Example 896],≤ 100
12,CC1(NC(=O)O[C@H]2CO[C@@H](c3cc(Nc4nccn5nc(COC(F)(F)F)cc45)n[nH]3)C2)CC1 [Example 897],≤ 100
13,CC1(NC(=O)O[C@H]2CO[C@H](c3cc(Nc4nccc5nc(C(F)(F)F)cn45)n[nH]3)C2)CC1 [Example 898],250 to 1000
14,CC1(NC(=O)O[C@H]2CO[C@@H](c3cc(Nc4nccc5nc(C(F)(F)F)cn45)n[nH]3)C2)CC1 [Example 901],≤ 100
15,Cn1nc(CO)cc1C(=O)Nc1cc([C@H]2C[C@@H](OC(=O)NC3(C)CC3)CO2)[nH]n1 [Example 902],250 to 1000
16,COCc1cn2c(Nc3cc([C@@H]4C[C@@H](OC(=O)NC5(C)CC5)CO4)[nH]n3)nccc2n1 [Example 904],1000 to 100000
17,COCc1cn2c(Nc3cc([C@H]4C[C@@H](OC(=O)NC5(C)CC5)CO4)[nH]n3)nccc2n1 [Example 906],≤ 100
18,Cn1nc(OCC(F)F)cc1C(=O)Nc1cc([C@@H]2C[C@H](OC(=O)NC34CC(C3)C4)CO2)[nH]n1 [Example 907],≤ 100
19,Cn1nc(OCC(F)(F)F)cc1C(=O)Nc1cc([C@@H]2C[C@H](OC(=O)NC34CC(C3)C4)CO2)[nH]n1 [Example 908],≤ 100
20,C[C@@H](NC(=O)O[C@@H]1CO[C@H](c2cc(NC(=O)c3cc(OCC(F)F)nn3C)n[nH]2)C1)C1CC1 [Example 909],≤ 100
21,C[C@@H](NC(=O)O[C@@H]1CO[C@H](c2cc(NC(=O)c3cc(OCC(F)(F)F)nn3C)n[nH]2)C1)C1CC1 [Example 910],≤ 100

# From US20240190855A1 (Relay Therapeutics, Inc., priority 2021, published 2024)
